# Results as given in patent US8981084B2, “Oxadiazole HDAC inhibitors” (Tempero Pharmaceuticals, Inc., priority 2011, dated 2015).
# Target: T1, Recombinant HDAC9 isoform 4 (Homo sapiens, UniProt Q9UKV0)
# T1 construct: purchased BPS Bioscience
# Test: Histone Deacetylase 9 (HDAC9) inhibition assay, fluorogenic substrate
# Type: biochemical
# Settings: mean of a minimum of 2 experiments; 11 point 3x dilution series from 100 uM; Class IIa HDAC-specific fluorogenic substrate 4.5 uM; read-out: mean pIC50, inhibition of HDAC9 (converted)
# Description: Histone Deacetylase 9 (HDAC9) Inhibition Assay:
# Novel histone deacetylase 9 (HDAC9) inhibitors were characterized in an in vitro biochemical functional assay. The assay measures the increased fluorescent signal due to deacetylation, by HDAC9, of a fluorogenic substrate. The commercial available substrate is Class IIa HDAC-specific and contains an acetylated lysine residue and would releases the fluorescent signal upon trypsin cleavage after deacetylation.
# Specifically, test compounds diluted to various concentrations in 100% DMSO are first dispensed into 384-well assay plates. Recombinant HDAC9 isoform 4 (purchased from BPS Bioscience) in complete assay buffer (50 mM Tris-HCl, pH 8.0, 137 mM NaCl, 2.7 mM KCl, 1 mM MgCl2, 0.05% BSA & 0.005% Tween 20) were then added to each well (5 uL/well) using Multidrop Combi (Thermo Scientific), followed by 5 uL/well substrate (purchased from BPS Bioscience, 4.5 uM final). After 45 minutes incubation at room temperature, 10 uL 2× developer solution (assay buffer with 40 uM Trypsin and 20 uM Trichostatin A) was added. The plates were then incubated 1 hour at room temperature before reading in fluorescent intensity mode at 450 nm in an Envision (Perkin Elmer) plate reader. Percent Inhibition of HDAC9 activity by compounds in each test wells was calculated by normalizing to fluorescent signal in control wells containing DMSO only. The pIC50s value of test compounds were calculated from non-linear curve fitting, using ActivityBase5 data analysis tool (IDBS), from 11 point 3× dilution series starting from 100 uM final compound concentration.
# For dose response experiments, normalized data were fit by ABASE/XC50 using the equation y=a+(b−a)/(1+(10^×/10^c)^d), where a is the minimum % activity, b is the maximum % activity, c is the pIC50, d is the Hill slope.
# The pIC50s are averaged to determine a mean value, for a minimum of 2 experiments. […] For instance, the compounds of Examples 1, 38, 61 and 79 inhibited HDAC9 in the above method with a mean pIC50 of >6.
# T1 sequence (Q9UKV0 1-1066 isoform Q9UKV0-5): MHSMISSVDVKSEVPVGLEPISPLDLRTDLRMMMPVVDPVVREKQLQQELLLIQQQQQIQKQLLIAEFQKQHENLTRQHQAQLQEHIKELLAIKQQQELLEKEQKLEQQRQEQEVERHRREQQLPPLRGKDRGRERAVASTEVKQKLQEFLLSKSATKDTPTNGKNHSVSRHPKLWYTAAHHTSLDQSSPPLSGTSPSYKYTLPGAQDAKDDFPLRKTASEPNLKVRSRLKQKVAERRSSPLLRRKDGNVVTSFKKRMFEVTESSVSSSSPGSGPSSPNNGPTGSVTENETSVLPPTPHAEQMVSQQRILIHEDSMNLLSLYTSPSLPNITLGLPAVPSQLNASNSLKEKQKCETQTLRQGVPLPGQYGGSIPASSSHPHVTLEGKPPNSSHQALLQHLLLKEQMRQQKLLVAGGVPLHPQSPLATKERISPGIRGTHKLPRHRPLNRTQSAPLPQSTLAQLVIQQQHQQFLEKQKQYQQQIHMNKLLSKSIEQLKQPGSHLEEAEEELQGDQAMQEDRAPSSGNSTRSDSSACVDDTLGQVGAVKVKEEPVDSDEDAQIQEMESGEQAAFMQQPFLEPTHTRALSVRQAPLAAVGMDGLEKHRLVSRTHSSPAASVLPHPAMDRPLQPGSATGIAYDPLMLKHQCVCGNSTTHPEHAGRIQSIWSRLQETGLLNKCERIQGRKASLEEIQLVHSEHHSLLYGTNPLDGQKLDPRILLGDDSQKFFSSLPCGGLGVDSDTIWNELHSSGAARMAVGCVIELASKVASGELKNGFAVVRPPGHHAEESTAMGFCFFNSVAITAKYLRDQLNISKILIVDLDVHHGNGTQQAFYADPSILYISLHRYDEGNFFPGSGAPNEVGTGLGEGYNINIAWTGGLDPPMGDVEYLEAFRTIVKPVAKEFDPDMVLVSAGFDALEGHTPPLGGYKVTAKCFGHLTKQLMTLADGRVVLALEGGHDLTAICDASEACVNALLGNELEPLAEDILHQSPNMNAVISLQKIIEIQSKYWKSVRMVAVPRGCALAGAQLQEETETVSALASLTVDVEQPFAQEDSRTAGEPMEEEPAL
row,SMILES,IC50 [nM]
1,"O=C(c1cccc(-c2noc(C(F)(F)F)n2)c1)N1CCCN(c2ccc(C(F)(F)F)cn2)CC1 [Example 1, (3-(5-(Trifluoromethyl)-1,2,4-oxadiazol-3-yl)phenyl)(4-(5-(trifluoromethyl)pyridin-2-yl)-1,4-diazepan-1-yl)methanone]",< 1000
2,"O=C(c1cccc(-c2noc(C(F)(F)F)n2)c1)N1CC(Cc2nc(-c3ccc(F)cc3)cs2)C1 [Example 79, (3-((4-(4-Fluorophenyl)thiazol-2-yl)methyl)azetidin-1-yl)(3-(5-(trifluoromethyl)-1,2,4-oxadiazol-3-yl)phenyl)methanone]",< 1000
3,"N#Cc1ccc(N2CCN(C(=O)c3cccc(-c4ccc(C(=O)C(F)(F)F)s4)c3)CC2)nc1 [Example 61, 6-(4-(3-(5-(2,2,2-Trifluoroacetyl)thiophen-2-yl)benzoyl)piperazin-1-yl)nicotinonitrile]",< 1000
4,"N#Cc1ccc(N2CCN(C(=O)c3cccc(-c4noc(C(F)(F)F)n4)c3)CC2)cc1 [Example 38, 4-(4-(3-(5-(Trifluoromethyl)-1,2,4-oxadiazol-3-yl)benzoyl)piperazin-1-yl)benzonitrile]",< 1000
